Measured values reported in PMC10837065 (Current Research in Insect Science, 2024).

Tests used:
PficOrco/PficOR8 = assay: Fluo4-AM calcium fluorescence, FlexStation-3, HEK293 cells; format: cell-based, Planococcus ficus; conditions: agonist; doxycycline-induced cells; 0.5 % DMSO
PficOrco/PficOR6 = assay: as above; format: cell-based, Planococcus ficus; conditions: agonist; doxycycline-induced cells; 0.5 % DMSO

| EC50 (PficOrco/PficOR8) | EC50 (PficOrco/PficOR6) | Compound |
| --- | --- | --- |
| 8.6 µM |  | CCCC(=O)OCC(CC=C(C)C)=C(C)C [2-isopropyliden-5-methyl-4-hexen-1-yl butyrate] |
| 52.6 µM | 4.6 µM | C=C(C)C(CC=C(C)C)COC(=O)C=C(C)C (stereo not drawn) [lavandulyl senecioate] |
